Measurements published in US8835458B2 (Hanmi Science Co., Ltd, priority 2010, dated 2014).
Counter-ions that a name gives are not always drawn. Like-named read-outs stand apart in the source and are kept apart here.

How the values were obtained:
[1] = Toxicity to normal cells (SRB); type: cell-based, human; details: human, Hs27 fibroblasts (normal cell line)
Summary of the method: (§1)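 GI50 values come from growth equations comparing treated, untreated and medium-only wells. Fibroblasts (Hs27, Balb/c3t3) got 72 h compound exposure with SRB read-out at 540 nm after TCA fixing. MDA-MB-231 got 120 h with MTS at 490 nm, across 10 μM˜0.1 nM.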

[2] = tested on: MDA-MB-231 breast cancer cell lines; experiment: Evaluation of inhibition on cell growth (MTS); type: cell-based; details: Homo sapiens, MDA-MB-231, 120 hours
Summary of the method: as §1

[3] = Toxicity to normal cells (SRB); type: cell-based, mouse; details: mouse, Balb/c3t3 fibroblasts (normal cell line), read-out: BalB/C (GI50)
Summary of the method: as §1

GI50 [2] [µM]	Compound	GI50 at 72 h [1] [µM]	GI50 at 72 h [3] [µM]
≤ 0.1	CN[C@@H](C)C(=O)N[C@H](C(=O)N1CCC[C@H]1C(=O)Nc1cc2c(Nc3ccc(F)cc3)ncnc2cc1OC)C(C)(C)C [Example 55, (S)-1-((S)-3,3-dimethyl-2-((S)-2-(methylamino)propanamido)butanoyl)-N-(4-(4-fluorophenylamino)-7-methoxyquinazolin-6-yl)pyrrolidine-2-carboxamide]	> 10	> 10
≤ 0.1	CN[C@@H](C)C(=O)N[C@H](C(=O)N1CCC[C@H]1C(=O)Nc1cc2c(Nc3ccc(OCc4cccc(F)c4)c(Cl)c3)ncnc2cc1OC)C(C)(C)C [Example 37, (S)—N-(4-(3-chloro-4-(3-fluorobenzyloxy)phenylamino)-7-methoxyquinazolin-6-yl)-1-((S)-3,3-dimethyl-2-((S)-2-(methylamino)propanamido)butanoyl)pyrrolidine-2-carboxamide hydrochloride]	> 10	> 10
0.1 to 1	CCN1CCN(c2ccc(Nc3ncnc4cc(OC)c(NC(=O)[C@@H]5CCCN5C(=O)[C@@H](NC(=O)[C@H](C)NC)C(C)(C)C)cc34)cc2)CC1 [Example 60, (S)-1-((S)-3,3-dimethyl-2-((S)-2-(methylamino)propanamido)butanoyl)-N-(4-(4-(4-ethylpiperazin-1-yl)phenylamino)-7-methoxyquinazolin-6-yl)pyrrolidine-2-carboxamide]	> 10	> 10
≤ 0.1	CNc1ncnc2cc(OC)c(NC(=O)[C@@H]3CCCN3C(=O)[C@@H](NC(=O)[C@H](C)NC)C(C)(C)C)cc12 [Example 23, (S)-1-((S)-3,3-dimethyl-2-((S)-2-(methylamino)propanamido)butanoyl)-N-(7-methoxy-4-(methylamino)quinazolin-6-yl)pyrrolidine-2-carboxamide]	> 10	> 10
≤ 0.1	CN[C@@H](C)C(=O)N[C@H](C(=O)N1CCC[C@H]1C(=O)Nc1cc2c(Nc3cccc(F)c3F)ncnc2cc1OC)C(C)(C)C [Example 42, (S)—N-(4-(2,3-difluorophenylamino)-7-methoxyquinazolin-6-yl)-1-((S)-3,3-dimethyl-2-((S)-2-(methylamino)propanamido)butanoyl)pyrrolidine-2-carboxamide hydrochloride]	> 10	> 10
0.1 to 1	CN[C@@H](C)C(=O)N[C@H](C(=O)N1CCC[C@H]1C(=O)Nc1cc2c(Nc3ccc(F)c(Cl)c3)ncnc2cc1OCCOC)C(C)(C)C [Example 5, (S)—N-(4-(3-chloro-4-fluorophenylamino)-7-(2-methoxyethoxy)quinazolin-6-yl)-1-((S)-3,3-dimethyl-2-((S)-2-(methylamino)propanamido)butanoyl)pyrrolidine-2-carboxamide hydrochloride]	> 10	> 10
≤ 0.1	CN[C@@H](C)C(=O)N[C@H](C(=O)N1CCC[C@H]1C(=O)Nc1cc2c(Nc3ccc(N4CCN(C)CC4)cc3)ncnc2cc1OC)C(C)(C)C [Example 67, (S)-1-((S)-3,3-dimethyl-2-((S)-2-(methylamino)propanamido)butanoyl)-N-(7-methoxy-4-(4-(4-methylpiperazin-1-yl)phenylamino)quinazolin-6-yl)pyrrolidine-2-carboxamide dihydrochloride]	> 10	> 10
≤ 0.1	CN[C@@H](C)C(=O)N[C@H](C(=O)N1CCC[C@H]1C(=O)Nc1cc2c(Nc3ccc(Oc4ccccc4)cc3)ncnc2cc1OC)C(C)(C)C [Example 40, (S)-1-((S)-3,3-dimethyl-2-((S)-2-(methylamino)propanamido)butanoyl)-N-(7-methoxy-4-(4-phenoxyphenylamino)quinazolin-6-yl)pyrrolidine-2-carboxamide hydrochloride]	> 10	> 10
